Numbering of substitutions follows the chain as printed.
Legend:
Androgen receptor H875Y = target: T1, Androgen receptor H875Y (Homo sapiens, UniProt P10275, H875Y); experiment: Degradation of overexpressed Androgen Receptor in A549 cells (HiBiT), H875Y; format: cell-based; conditions: A549 cells overexpressing AR H875Y, cycloheximide, 24 hours
T1 construct: expressed in transfected cells; host or cells: A549, transduced, puromycin selected
T1 sequence (P10275 1-920 H875Y): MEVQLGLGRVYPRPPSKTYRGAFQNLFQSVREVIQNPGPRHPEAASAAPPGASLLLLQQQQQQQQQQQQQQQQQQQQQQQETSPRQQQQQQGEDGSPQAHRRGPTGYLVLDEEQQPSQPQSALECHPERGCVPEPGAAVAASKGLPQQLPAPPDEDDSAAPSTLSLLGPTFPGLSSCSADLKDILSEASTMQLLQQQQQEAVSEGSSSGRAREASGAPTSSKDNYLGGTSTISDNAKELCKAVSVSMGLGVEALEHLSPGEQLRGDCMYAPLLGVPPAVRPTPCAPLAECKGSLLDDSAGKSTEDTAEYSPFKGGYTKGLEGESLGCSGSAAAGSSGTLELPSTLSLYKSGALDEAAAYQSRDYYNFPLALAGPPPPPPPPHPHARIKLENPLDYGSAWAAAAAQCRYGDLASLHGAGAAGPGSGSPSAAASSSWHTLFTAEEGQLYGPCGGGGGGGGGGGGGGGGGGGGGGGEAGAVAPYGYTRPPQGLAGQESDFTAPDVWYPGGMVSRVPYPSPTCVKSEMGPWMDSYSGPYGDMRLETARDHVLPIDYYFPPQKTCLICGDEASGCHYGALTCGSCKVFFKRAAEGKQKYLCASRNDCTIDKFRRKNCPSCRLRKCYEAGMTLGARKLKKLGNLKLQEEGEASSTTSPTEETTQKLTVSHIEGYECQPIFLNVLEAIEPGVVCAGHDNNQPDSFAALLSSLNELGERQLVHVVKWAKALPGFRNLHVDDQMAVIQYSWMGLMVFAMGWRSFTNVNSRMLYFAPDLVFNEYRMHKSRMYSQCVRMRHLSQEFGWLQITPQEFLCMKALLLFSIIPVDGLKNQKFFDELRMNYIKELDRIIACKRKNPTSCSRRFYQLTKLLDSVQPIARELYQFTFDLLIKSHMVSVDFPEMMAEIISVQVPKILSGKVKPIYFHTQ
Method: (§1) A549 cells were transduced to express wild type androgen receptor and Androgen receptor containing the following mutations (L702H, H875Y W742C W742L F877L, T878A and T878A/H875Y) with HiBiT tags. Transduced cells following puromycin selection were maintained in a humidified incubator (at 37° C. and 5% CO2 in the DMEM medium supplemented with 1% (v/v) Pen/Strep, 1% (v/v) Glutamax and 10% (v/v) FBS. A549 cells expressing each AR construct were detached from plate and counted. Cell suspensions at density 0.2 million per mL were prepared. Cell suspension was supplemented with 100 μg/mL of cycloheximide to block protein synthesis. Cells were preincubated with cycloheximide for 1 hr before seeding. Cells were seeded onto 384-well plate at density of 5,000 in 25 μL per well. A two fold serial dilution of test compounds, starting from 1 μM (row A) in 2-fold serial dilution series across the column using Tecan D300e dispenser. […]
(§2) Nano-Glo HiBiT Lytic reagent was prepared by adding LgBiT protein and Nano-Glo® substrate to lytic buffer pre-equilibrated at room temperature following manufacturer protocol (https://www.promega.co.uk/resources/protocols/technical-manuals/101/nanoglo-luciferase-assay-system-protocol). […] The plates were then centrifuged (100×G, 1 min) and incubated on shaker for 10 mins before taking readings on Pherastar Luminescence microplate reader. […]

Androgen receptor W742L = target: T2, Androgen receptor W742L (Homo sapiens, UniProt P10275, W742L); experiment: Degradation of overexpressed Androgen Receptor in A549 cells (HiBiT), W742L; format: cell-based; conditions: A549 cells overexpressing AR W742L, cycloheximide, 24 hours
T2 construct: expressed in transfected cells; host or cells: A549, transduced, puromycin selected
T2 sequence (P10275 1-920 W742L): T1 sequence (P10275 1-920 H875Y) with W742L, Y875H
Method: as §1, §2

in vivo = conditions: male, Wistar Han, rat, po
Method: Systemic exposure of various forms of N-((1r,3r)-3-(4-cyano-3-methoxyphenoxy)-2,2,4,4-tetramethylcyclobutyl)-4-(4-((4-(4-(2,4-dioxotetrahydropyrimidin-1(2H)-yl)-1H-pyrazolo[4,3-c]pyridin-1-yl)piperidin-1-yl)methyl)piperidin-1-yl)-3-fluorobenzamide were assessed following oral administration of 30 mg/kg of a suspension formulation (1% methylcellulose (aq)) or following oral administration of 35 mg/kg of a suspension formulation (100% PEG400) in the male Wistar Han rat. […] The sampling period was 72 hours, and the data is reported in the attached table as mean±SD (n=3).

Summary pXC50 (Androgen receptor H875Y): 8.83
Summary pXC50 (Androgen receptor W742L): 8.93
AUC0-t (in vivo; 30 mg/kg): 7220 ± 1220 ng·h/mL
Cmax (in vivo; 30 mg/kg): 318 ± 50 ng/mL
Tmax (in vivo; 30 mg/kg): 8 h
AUC0-t (in vivo; 35 mg/kg): 26200 ± 1750 ng·h/mL
Cmax (in vivo; 35 mg/kg): 849 ± 98 ng/mL
Tmax (in vivo; 35 mg/kg): 8.7 ± 3 h
Structure (SMILES): COc1cc(O[C@H]2C(C)(C)[C@H](NC(=O)c3ccc(N4CCC(CN5CCC(n6ncc7c(N8CCC(=O)NC8=O)nccc76)CC5)CC4)c(F)c3)C2(C)C)ccc1C#N [Example 20, N-((1r,3r)-3-(4-Cyano-3-methoxyphenoxy)-2,2,4,4-tetramethylcyclobutyl)-4-(4-((4-(4-(2,4-dioxotetrahydropyrimidin-1(2H)-yl)-1H-pyrazolo[4,3-c]pyridin-1-yl)piperidin-1-yl)methyl)piperidin-1-yl)-3-fluorobenzamide]

Source: patent US12577231B2, “Androgen receptor PROTACS” (GlaxoSmithKline Intellectual Property Development Limited, priority 2023, dated 2026)
